US8614327B2 (Vertex Pharmaceuticals Incorporated, priority 2004, dated 2013)

Target: T1, ΔF508-CFTR (Homo sapiens, UniProt P13569, DEL508-508)
T1 construct: expressed in transfected cells
Experiment: Membrane potential optical (FRET/VIPR) assay, identification of potentiator compounds
Assay type: cell-based
Conditions: Table 3, assay not given; for % Activity: relative efficacy
Summary of the method: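 NIH3T3 mouse fibroblasts stably expressing ΔF508-CFTR, temperature-corrected 24 h at 27° C., read on VIPR by FRET between CC2-DMPE and DiSBAC2(3). Potentiators identified in a double-addition format, first adding chloride-free (gluconate) medium with or without compound.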

T1 sequence (P13569 with tags, fused parts or gaps DEL508-508): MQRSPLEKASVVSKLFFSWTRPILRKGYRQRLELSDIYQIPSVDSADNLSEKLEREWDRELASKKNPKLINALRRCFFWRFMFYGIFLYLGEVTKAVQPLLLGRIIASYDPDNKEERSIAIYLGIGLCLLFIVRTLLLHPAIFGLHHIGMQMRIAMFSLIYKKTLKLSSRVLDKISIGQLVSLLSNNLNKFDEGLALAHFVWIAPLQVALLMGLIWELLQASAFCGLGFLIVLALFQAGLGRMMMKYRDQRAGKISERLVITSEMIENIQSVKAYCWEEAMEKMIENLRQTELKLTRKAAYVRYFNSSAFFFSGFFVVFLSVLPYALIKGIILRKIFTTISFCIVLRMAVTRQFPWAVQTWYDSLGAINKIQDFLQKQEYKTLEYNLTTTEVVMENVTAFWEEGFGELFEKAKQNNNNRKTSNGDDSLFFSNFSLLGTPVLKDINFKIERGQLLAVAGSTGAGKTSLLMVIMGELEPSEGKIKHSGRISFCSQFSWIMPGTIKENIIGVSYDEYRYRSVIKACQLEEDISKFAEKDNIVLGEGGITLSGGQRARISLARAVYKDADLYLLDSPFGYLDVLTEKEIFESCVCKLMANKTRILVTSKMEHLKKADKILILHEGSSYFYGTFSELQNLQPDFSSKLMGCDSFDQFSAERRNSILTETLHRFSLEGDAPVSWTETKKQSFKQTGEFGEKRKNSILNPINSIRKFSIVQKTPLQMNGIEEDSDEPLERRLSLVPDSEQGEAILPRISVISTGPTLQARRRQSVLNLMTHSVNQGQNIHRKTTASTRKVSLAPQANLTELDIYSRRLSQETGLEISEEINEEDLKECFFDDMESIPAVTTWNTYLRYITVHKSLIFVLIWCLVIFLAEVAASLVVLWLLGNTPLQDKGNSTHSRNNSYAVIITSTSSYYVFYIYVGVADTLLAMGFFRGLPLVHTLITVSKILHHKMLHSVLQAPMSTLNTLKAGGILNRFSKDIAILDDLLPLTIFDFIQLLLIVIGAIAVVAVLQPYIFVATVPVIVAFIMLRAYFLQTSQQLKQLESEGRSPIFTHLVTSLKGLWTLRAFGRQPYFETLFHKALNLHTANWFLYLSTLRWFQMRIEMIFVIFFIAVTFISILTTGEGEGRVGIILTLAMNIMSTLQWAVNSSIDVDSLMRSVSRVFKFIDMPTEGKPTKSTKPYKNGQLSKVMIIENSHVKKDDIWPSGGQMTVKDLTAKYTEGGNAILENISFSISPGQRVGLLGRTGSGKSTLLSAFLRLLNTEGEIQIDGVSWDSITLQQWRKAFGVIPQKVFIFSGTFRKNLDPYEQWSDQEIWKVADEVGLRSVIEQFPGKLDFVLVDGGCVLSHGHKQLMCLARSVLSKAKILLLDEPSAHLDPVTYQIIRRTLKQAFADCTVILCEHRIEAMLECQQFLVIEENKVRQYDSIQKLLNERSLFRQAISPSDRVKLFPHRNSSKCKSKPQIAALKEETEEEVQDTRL

| SMILES | EC50 [µM] | % Activity |
| --- | --- | --- |
| CC(C)(C)c1ccc(NC(=O)c2c[nH]c3ccccc3c2=O)c(C(C)(C)C)c1O [Compound 594, N-(3-hydroxy-2,4-ditert-butyl-phenyl)-4-oxo-1H-quinoline-3-carboxamide] | < 10 | +++ (>100%) |
| Cc1cccc2[nH]cc(C(=O)Nc3ccc(OC4CCCC4)cc3C(F)(F)F)c(=O)c12 [Compound 595, N-[4-cyclopentoxy-2-(trifluoromethyl)phenyl]-5-methyl-4-oxo-1H-quinoline-3-carboxamide] | < 10 | ++ (between 25% to 100%) |
| O=C(Nc1cc2[nH]ccc2cc1F)c1c[nH]c2cccc(O)c2c1=O [Compound 596, N-(5-fluoro-1H-indol-6-yl)-5-hydroxy-4-oxo-1H-quinoline-3-carboxamide] | < 10 | ++ (between 25% to 100%) |
| CC(C)c1ccc(NC(=O)c2c[nH]c3ccc(F)cc3c2=O)cc1O [Compound 597, 6-fluoro-N-(3-hydroxy-4-isopropyl-phenyl)-4-oxo-1H-quinoline-3-carboxamide] |  | ++ (between 25% to 100%) |
| O=C(Nc1ccc(N2CCOCC2)cc1C(F)(F)F)c1c[nH]c2ccccc2c1=O [Compound 598, N-[4-morpholino-2-(trifluoromethyl)phenyl]-4-oxo-1H-quinoline-3-carboxamide] | < 10 | +++ (>100%) |
| O=C(Nc1cc(O)cc(C(F)(F)F)c1)c1c[nH]c2cccc(O)c2c1=O [Compound 599, 5-hydroxy-N-[3-hydroxy-5-(trifluoromethyl)phenyl]-4-oxo-1H-quinoline-3-carboxamide] | < 10 | ++ (between 25% to 100%) |
| CC(C)(C)OC(=O)Nc1ccc(NC(=O)c2c[nH]c3ccccc3c2=O)c(C(F)(F)F)c1 [Compound 600, tert-butyl [[4-[(4-oxo-1H-quinolin-3-yl)carbonylamino]-3-(trifluoromethyl)phenyl]amino]formate] | < 10 | ++ (between 25% to 100%) |
| COc1ccc2[nH]cc(C(=O)Nc3ccc(N4CCC[C@@H]4C)cc3C(F)(F)F)c(=O)c2c1 [Compound 601, (S)-6-methoxy-N-(4-(2-methylpyrrolidin-1-yl)-2-(trifluoromethyl)phenyl)-4-oxo-1,4-dihydroquinoline-3-carboxamide] | < 10 | ++ (between 25% to 100%) |
| CC(C)(C)c1cccc(NC(=O)c2c[nH]c3ccccc3c2=O)c1 [Compound 602, 4-oxo-N-(3-tert-butylphenyl)-1H-quinoline-3-carboxamide] | < 10 | ++ (between 25% to 100%) |
| CC(=O)c1ccc2c(=O)c(C(=O)Nc3cc(O)c(C(C)(C)C)cc3C(C)(C)C)c[nH]c2c1 [Compound 604, 7-acetyl-N-(5-hydroxy-2,4-ditert-butyl-phenyl)-4-oxo-1H-quinoline-3-carboxamide] | < 10 | ++ (between 25% to 100%) |
| CCc1cccc2c(=O)c(C(=O)Nc3cc(O)c(C(C)(C)C)cc3F)c[nH]c12 [Compound 605, 8-ethyl-N-(2-fluoro-5-hydroxy-4-tert-butyl-phenyl)-4-oxo-1H-quinoline-3-carboxamide] | 10 to 25 | + (<25%) |
| CC1(c2ccc(NC(=O)c3c[nH]c4cccc(O)c4c3=O)cc2O)CCCCC1 [Compound 606, 5-hydroxy-N-[3-hydroxy-4-(1-methylcyclohexyl)-phenyl]-4-oxo-1H-quinoline-3-carboxamide] | < 10 | + (<25%) |
| Cc1ccc2c(=O)c(C(=O)Nc3ccc(N4CCC[C@@H]4C)cc3C(F)(F)F)c[nH]c2c1 [Compound 607, (S)-7-methyl-N-(4-(2-methylpyrrolidin-1-yl)-2-(trifluoromethyl)phenyl)-4-oxo-1,4-dihydroquinoline-3-carboxamide] | < 10 | ++ (between 25% to 100%) |
| O=C(Nc1cc(O)c(Cl)cc1Cl)c1c[nH]c2ccccc2c1=O [Compound 608, N-(2,4-dichloro-5-hydroxy-phenyl)-4-oxo-1H-quinoline-3-carboxamide] | < 10 | ++ (between 25% to 100%) |
| CC(C)(C)c1ccc(O)cc1NC(=O)c1c[nH]c2cccc(O)c2c1=O [Compound 609, 5-hydroxy-N-(5-hydroxy-2-tert-butyl-phenyl)-4-oxo-1H-quinoline-3-carboxamide] | < 10 | ++ (between 25% to 100%) |
| CC(C)(C)c1cc(F)c(NC(=O)c2c[nH]c3cccc(F)c3c2=O)cc1O [Compound 610, 5-fluoro-N-(2-fluoro-5-hydroxy-4-tert-butyl-phenyl)-4-oxo-1H-quinoline-3-carboxamide] | < 10 | ++ (between 25% to 100%) |
| COc1cc2c(=O)c(C(=O)Nc3cc4[nH]ccc4cc3C(C)(C)C)c[nH]c2cc1F [Compound 611, 7-fluoro-6-methoxy-4-oxo-N-(5-tert-butyl-1H-indol-6-yl)-1H-quinoline-3-carboxamide] | < 10 | +++ (>100%) |
| CC1(C)CCCN(c2ccc(NC(=O)c3c[nH]c4ccccc4c3=O)c(C(F)(F)F)c2)C1 [Compound 612, N-[4-(3,3-dimethyl-1-piperidyl)-2-(trifluoromethyl)phenyl]-4-oxo-1H-quinoline-3-carboxamide] | < 10 | ++ (between 25% to 100%) |
| Cc1cccc2[nH]cc(C(=O)Nc3ccc(N4CC[C@@H](C)C4)cc3C(F)(F)F)c(=O)c12 [Compound 613, (R)-5-methyl-N-(4-(3-methylpyrrolidin-1-yl)-2-(trifluoromethyl)phenyl)-4-oxo-1,4-dihydroquinoline-3-carboxamide] | < 10 | ++ (between 25% to 100%) |
| O=C(Nc1ccc(Oc2cccnc2)cc1)c1c[nH]c2ccccc2c1=O [Compound 614, 4-oxo-N-[4-(3-pyridyloxy)phenyl]-1H-quinoline-3-carboxamide] | < 10 | ++ (between 25% to 100%) |
| Cc1cc(N2CCCC2)ccc1NC(=O)c1c[nH]c2ccccc2c1=O [Compound 615, N-(2-methyl-4-pyrrolidin-1-yl-phenyl)-4-oxo-1H-quinoline-3-carboxamide] | < 10 | +++ (>100%) |
| CCOc1cccc2c(=O)c(C(=O)Nc3cc(O)c(C(C)(C)C)cc3C(C)(C)C)c[nH]c12 [Compound 616, 8-ethoxy-N-(5-hydroxy-2,4-ditert-butyl-phenyl)-4-oxo-1H-quinoline-3-carboxamide] | 10 to 25 | + (<25%) |
| COc1cc2[nH]cc(C(=O)Nc3cc(O)c(C(C)(C)C)cc3C(C)(C)C)c(=O)c2cc1F [Compound 617, 6-fluoro-N-(5-hydroxy-2,4-ditert-butyl-phenyl)-7-methoxy-4-oxo-1H-quinoline-3-carboxamide] | < 10 | +++ (>100%) |
| C[C@H]1CCCN1c1ccc(NC(=O)c2c[nH]c3ccccc3c2=O)c(C(F)(F)F)c1 [Compound 618, (S)-N-(4-(2-methylpyrrolidin-1-yl)-2-(trifluoromethyl)phenyl)-4-oxo-1,4-dihydroquinoline-3-carboxamide] | < 10 | ++ (between 25% to 100%) |
| O=C(Nc1cc(O)c(C2CCCCC2)cc1C(F)(F)F)c1c[nH]c2ccccc2c1=O [Compound 619, N-[4-cyclohexyl-5-hydroxy-2-(trifluoromethyl)phenyl]-4-oxo-1H-quinoline-3-carboxamide] | < 10 | +++ (>100%) |
| Cc1cccc2c(=O)c(C(=O)Nc3cc(O)c(C(C)(C)C)cc3C(C)(C)C)c[nH]c12 [Compound 621, N-(5-hydroxy-2,4-ditert-butyl-phenyl)-8-methyl-4-oxo-1H-quinoline-3-carboxamide] | < 10 | + (<25%) |
| N#Cc1cc(N2CCCC2)ccc1NC(=O)c1c[nH]c2ccccc2c1=O [Compound 622, N-(2-cyano-4-pyrrolidin-1-yl-phenyl)-4-oxo-1H-quinoline-3-carboxamide] | < 10 | ++ (between 25% to 100%) |
| CC(C)(C)c1cc(C(C)(C)C)c(NC(=O)c2c[nH]c3ccc(Cl)cc3c2=O)cc1O [Compound 623, 6-chloro-N-(5-hydroxy-2,4-ditert-butyl-phenyl)-4-oxo-1H-quinoline-3-carboxamide] | < 10 | ++ (between 25% to 100%) |
| Cc1ccc2[nH]cc(C(=O)Nc3cc(O)c(C4(C)CCCCC4)cc3F)c(=O)c2c1 [Compound 624, N-[2-fluoro-5-hydroxy-4-(1-methylcyclohexyl)-phenyl]-6-methyl-4-oxo-1H-quinoline-3-carboxamide] | < 10 | ++ (between 25% to 100%) |
| Cc1cccc2c(=O)c(C(=O)Nc3cc(O)c(C(C)(C)C)cc3F)c[nH]c12 [Compound 625, N-(2-fluoro-5-hydroxy-4-tert-butyl-phenyl)-8-methyl-4-oxo-1H-quinoline-3-carboxamide] | < 10 | + (<25%) |
